Data published in EPA's CvTdb concentration-time database.

Legend:
Settings in all cases: dosed: [3H]benzo(a)pyrene, 1 ug/kg, inhalation, male, Sprague Dawley, radiolabel
rat [1] = assay: concentration in body after dosing
rat [2] = assay: concentration in lung after dosing
rat [3] = assay: concentration in urine after dosing
rat [4] = assay: concentration in feces after dosing
rat [5] = assay: concentration in blood after dosing
rat [6] = assay: concentration in liver after dosing
rat [7] = assay: concentration in testes after dosing
rat [8] = assay: concentration in spleen after dosing
rat [9] = assay: concentration in kidney after dosing
rat [10] = assay: concentration in stomach after dosing
rat [11] = assay: concentration in intestines after dosing
rat [12] = assay: concentration in heart/thymus after dosing

[3H][3H] [[3H] radioactivity]
Settings	concentration in blood [µg/kg]	concentration in body [µg/kg]	concentration in feces [µg/kg]	concentration in heart/thymus [µg/kg]	concentration in intestines [µg/kg]	concentration in kidney [µg/kg]	concentration in liver [µg/kg]	concentration in lung [µg/kg]	concentration in spleen [µg/kg]	concentration in stomach [µg/kg]	concentration in testes [µg/kg]	concentration in urine [µg/kg]
rat [1], 0.25 h	–	0.23	–	–	–	–	–	–	–	–	–	–
rat [1], 0.5 h	–	0.263	–	–	–	–	–	–	–	–	–	–
rat [1], 1 h	–	0.271	–	–	–	–	–	–	–	–	–	–
rat [1], 1.5 h	–	0.25	–	–	–	–	–	–	–	–	–	–
rat [1], 2 h	–	0.223	–	–	–	–	–	–	–	–	–	–
rat [1], 3 h	–	0.214	–	–	–	–	–	–	–	–	–	–
rat [1], 4 h	–	0.21	–	–	–	–	–	–	–	–	–	–
rat [1], 5 min	–	0.144	–	–	–	–	–	–	–	–	–	–
rat [1], 6 h	–	0.215	–	–	–	–	–	–	–	–	–	–
rat [1], 10 min	–	0.264	–	–	–	–	–	–	–	–	–	–
rat [2], 0.25 h	–	–	–	–	–	–	–	0.322	–	–	–	–
rat [2], 0.5 h	–	–	–	–	–	–	–	0.204	–	–	–	–
rat [2], 1 h	–	–	–	–	–	–	–	0.154	–	–	–	–
rat [2], 1.5 h	–	–	–	–	–	–	–	0.113	–	–	–	–
rat [2], 2 h	–	–	–	–	–	–	–	0.11	–	–	–	–
rat [2], 3 h	–	–	–	–	–	–	–	0.068	–	–	–	–
rat [2], 4 h	–	–	–	–	–	–	–	0.035	–	–	–	–
rat [2], 5 min	–	–	–	–	–	–	–	0.595	–	–	–	–
rat [2], 6 h	–	–	–	–	–	–	–	0.052	–	–	–	–
rat [2], 10 min	–	–	–	–	–	–	–	0.419	–	–	–	–
rat [3], 0.25 h	–	–	–	–	–	–	–	–	–	–	–	0.002
rat [3], 0.5 h	–	–	–	–	–	–	–	–	–	–	–	0.001
rat [3], 1 h	–	–	–	–	–	–	–	–	–	–	–	0.003
rat [3], 1.5 h	–	–	–	–	–	–	–	–	–	–	–	0.008
rat [3], 2 h	–	–	–	–	–	–	–	–	–	–	–	0.011
rat [3], 3 h	–	–	–	–	–	–	–	–	–	–	–	0.012
rat [3], 4 h	–	–	–	–	–	–	–	–	–	–	–	0.016
rat [3], 6 h	–	–	–	–	–	–	–	–	–	–	–	0.022
rat [3], 10 min	–	–	–	–	–	–	–	–	–	–	–	0.0001
rat [4], 0.25 h	–	–	0.029	–	–	–	–	–	–	–	–	–
rat [4], 0.5 h	–	–	0.033	–	–	–	–	–	–	–	–	–
rat [4], 1 h	–	–	0.143	–	–	–	–	–	–	–	–	–
rat [4], 1.5 h	–	–	0.171	–	–	–	–	–	–	–	–	–
rat [4], 2 h	–	–	0.168	–	–	–	–	–	–	–	–	–
rat [4], 3 h	–	–	0.256	–	–	–	–	–	–	–	–	–
rat [4], 4 h	–	–	0.301	–	–	–	–	–	–	–	–	–
rat [4], 5 min	–	–	0.005	–	–	–	–	–	–	–	–	–
rat [4], 6 h	–	–	0.447	–	–	–	–	–	–	–	–	–
rat [4], 10 min	–	–	0.008	–	–	–	–	–	–	–	–	–
rat [5], 0.25 h	0.038	–	–	–	–	–	–	–	–	–	–	–
rat [5], 0.5 h	0.016	–	–	–	–	–	–	–	–	–	–	–
rat [5], 1 h	0.016	–	–	–	–	–	–	–	–	–	–	–
rat [5], 1.5 h	0.021	–	–	–	–	–	–	–	–	–	–	–
rat [5], 2 h	0.019	–	–	–	–	–	–	–	–	–	–	–
rat [5], 3 h	0.011	–	–	–	–	–	–	–	–	–	–	–
rat [5], 4 h	0.008	–	–	–	–	–	–	–	–	–	–	–
rat [5], 5 min	0.039	–	–	–	–	–	–	–	–	–	–	–
rat [5], 6 h	0.017	–	–	–	–	–	–	–	–	–	–	–
rat [5], 10 min	0.03	–	–	–	–	–	–	–	–	–	–	–
rat [6], 0.25 h	–	–	–	–	–	–	0.196	–	–	–	–	–
rat [6], 0.5 h	–	–	–	–	–	–	0.186	–	–	–	–	–
rat [6], 1 h	–	–	–	–	–	–	0.158	–	–	–	–	–
rat [6], 1.5 h	–	–	–	–	–	–	0.171	–	–	–	–	–
rat [6], 2 h	–	–	–	–	–	–	0.132	–	–	–	–	–
rat [6], 3 h	–	–	–	–	–	–	0.083	–	–	–	–	–
rat [6], 4 h	–	–	–	–	–	–	0.067	–	–	–	–	–
rat [6], 5 min	–	–	–	–	–	–	0.125	–	–	–	–	–
rat [6], 6 h	–	–	–	–	–	–	0.046	–	–	–	–	–
rat [6], 10 min	–	–	–	–	–	–	0.208	–	–	–	–	–
rat [7], 0.25 h	–	–	–	–	–	–	–	–	–	–	0.007	–
rat [7], 0.5 h	–	–	–	–	–	–	–	–	–	–	0.006	–
rat [7], 1 h	–	–	–	–	–	–	–	–	–	–	0.011	–
rat [7], 1.5 h	–	–	–	–	–	–	–	–	–	–	0.013	–
rat [7], 2 h	–	–	–	–	–	–	–	–	–	–	0.011	–
rat [7], 3 h	–	–	–	–	–	–	–	–	–	–	0.008	–
rat [7], 4 h	–	–	–	–	–	–	–	–	–	–	0.009	–
rat [7], 5 min	–	–	–	–	–	–	–	–	–	–	0.004	–
rat [7], 6 h	–	–	–	–	–	–	–	–	–	–	0.008	–
rat [7], 10 min	–	–	–	–	–	–	–	–	–	–	0.005	–
rat [8], 0.25 h	–	–	–	–	–	–	–	–	0.004	–	–	–
rat [8], 0.5 h	–	–	–	–	–	–	–	–	0.002	–	–	–
rat [8], 1 h	–	–	–	–	–	–	–	–	0.003	–	–	–
rat [8], 1.5 h	–	–	–	–	–	–	–	–	0.002	–	–	–
rat [8], 2 h	–	–	–	–	–	–	–	–	0.002	–	–	–
rat [8], 3 h	–	–	–	–	–	–	–	–	0.002	–	–	–
rat [8], 4 h	–	–	–	–	–	–	–	–	0.001	–	–	–
rat [8], 5 min	–	–	–	–	–	–	–	–	0.005	–	–	–
rat [8], 6 h	–	–	–	–	–	–	–	–	0.002	–	–	–
rat [8], 10 min	–	–	–	–	–	–	–	–	0.003	–	–	–
rat [9], 0.25 h	–	–	–	–	–	0.019	–	–	–	–	–	–
rat [9], 0.5 h	–	–	–	–	–	0.014	–	–	–	–	–	–
rat [9], 1 h	–	–	–	–	–	0.022	–	–	–	–	–	–
rat [9], 1.5 h	–	–	–	–	–	0.024	–	–	–	–	–	–
rat [9], 2 h	–	–	–	–	–	0.02	–	–	–	–	–	–
rat [9], 3 h	–	–	–	–	–	0.018	–	–	–	–	–	–
rat [9], 4 h	–	–	–	–	–	0.017	–	–	–	–	–	–
rat [9], 5 min	–	–	–	–	–	0.011	–	–	–	–	–	–
rat [9], 6 h	–	–	–	–	–	0.02	–	–	–	–	–	–
rat [9], 10 min	–	–	–	–	–	0.019	–	–	–	–	–	–
rat [10], 0.25 h	–	–	–	–	–	–	–	–	–	0.007	–	–
rat [10], 0.5 h	–	–	–	–	–	–	–	–	–	0.012	–	–
rat [10], 1 h	–	–	–	–	–	–	–	–	–	0.046	–	–
rat [10], 1.5 h	–	–	–	–	–	–	–	–	–	0.037	–	–
rat [10], 2 h	–	–	–	–	–	–	–	–	–	0.069	–	–
rat [10], 3 h	–	–	–	–	–	–	–	–	–	0.05	–	–
rat [10], 4 h	–	–	–	–	–	–	–	–	–	0.04	–	–
rat [10], 5 min	–	–	–	–	–	–	–	–	–	0.003	–	–
rat [10], 6 h	–	–	–	–	–	–	–	–	–	0.058	–	–
rat [10], 10 min	–	–	–	–	–	–	–	–	–	0.007	–	–
rat [11], 0.25 h	–	–	–	–	0.049	–	–	–	–	–	–	–
rat [11], 0.5 h	–	–	–	–	0.052	–	–	–	–	–	–	–
rat [11], 1 h	–	–	–	–	0.099	–	–	–	–	–	–	–
rat [11], 1.5 h	–	–	–	–	0.126	–	–	–	–	–	–	–
rat [11], 2 h	–	–	–	–	0.11	–	–	–	–	–	–	–
rat [11], 3 h	–	–	–	–	0.123	–	–	–	–	–	–	–
rat [11], 4 h	–	–	–	–	0.133	–	–	–	–	–	–	–
rat [11], 5 min	–	–	–	–	0.019	–	–	–	–	–	–	–
rat [11], 6 h	–	–	–	–	0.149	–	–	–	–	–	–	–
rat [11], 10 min	–	–	–	–	0.033	–	–	–	–	–	–	–
rat [12], 0.25 h	–	–	–	0.008	–	–	–	–	–	–	–	–
rat [12], 0.5 h	–	–	–	0.005	–	–	–	–	–	–	–	–
rat [12], 1 h	–	–	–	0.005	–	–	–	–	–	–	–	–
rat [12], 1.5 h	–	–	–	0.005	–	–	–	–	–	–	–	–
rat [12], 2 h	–	–	–	0.006	–	–	–	–	–	–	–	–
rat [12], 3 h	–	–	–	0.005	–	–	–	–	–	–	–	–
rat [12], 4 h	–	–	–	0.004	–	–	–	–	–	–	–	–
rat [12], 5 min	–	–	–	0.009	–	–	–	–	–	–	–	–
rat [12], 6 h	–	–	–	0.004	–	–	–	–	–	–	–	–
rat [12], 10 min	–	–	–	0.016	–	–	–	–	–	–	–	–
